Assays:
[1] = biological target: 3',5'-cyclic-AMP phosphodiesterase 4B (Homo sapiens) (UniProt Q07343); assay: Inhibition of PDE4B at 30 uM by luciferase reporter gene assay
[2] = test system: Lampyridae; assay: inhibition of firefly luciferase at 30 uM after 15 mins by luminescence assay

Sequence of 3',5'-cyclic-AMP phosphodiesterase 4B (Homo sapiens) (Q07343 whole entry): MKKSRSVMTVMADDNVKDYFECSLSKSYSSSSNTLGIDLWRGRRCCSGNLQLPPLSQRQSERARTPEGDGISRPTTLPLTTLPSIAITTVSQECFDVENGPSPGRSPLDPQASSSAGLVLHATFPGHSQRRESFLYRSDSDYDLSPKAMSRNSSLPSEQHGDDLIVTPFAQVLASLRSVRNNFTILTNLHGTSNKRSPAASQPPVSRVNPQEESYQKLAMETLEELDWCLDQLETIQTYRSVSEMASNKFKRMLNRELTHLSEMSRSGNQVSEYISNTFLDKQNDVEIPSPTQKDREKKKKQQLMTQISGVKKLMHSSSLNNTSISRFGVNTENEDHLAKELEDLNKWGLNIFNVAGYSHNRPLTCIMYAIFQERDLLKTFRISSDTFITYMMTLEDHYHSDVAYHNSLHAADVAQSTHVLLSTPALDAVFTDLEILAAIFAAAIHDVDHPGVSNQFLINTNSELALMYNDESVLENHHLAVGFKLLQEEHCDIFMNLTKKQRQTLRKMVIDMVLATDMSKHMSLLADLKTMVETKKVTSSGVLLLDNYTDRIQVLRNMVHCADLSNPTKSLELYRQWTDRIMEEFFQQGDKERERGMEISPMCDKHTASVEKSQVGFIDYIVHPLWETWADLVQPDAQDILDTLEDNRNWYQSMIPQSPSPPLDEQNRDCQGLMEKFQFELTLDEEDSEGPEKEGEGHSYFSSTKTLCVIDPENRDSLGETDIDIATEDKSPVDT

inhibition [1]	inhibition [2]	SMILES
100%	99.2%	CC(C)(C)c1cc2nc3ccccc3nc2[nH]1
98.3%	98.4%	c1ccc(-c2cc3[nH]c4ccccc4nc-3n2)cc1
94.7%	92.4%	CS(=O)(=O)n1c(-c2ccccc2)cc2nc3ccccc3nc21
